Numbers after ± are expanded uncertainties.
Settings: 101.33 kPa, Liquid, Vibrating tube method

- mass density (293.15 K): 659.4 ± 4.1 kg/m3
- mass density (298.15 K): 654.76 ± 4 kg/m3
- mass density (303.15 K): 650.21 ± 4 kg/m3
- mass density (308.15 K): 645.43 ± 4 kg/m3
- mass density (313.15 K): 640.75 ± 4 kg/m3
Compound: CCCCCC [hexane]

— the NIST ThermoML archive (doi:10.1016/j.jct.2017.08.012)
